“And” between values parts separate entries of the source, which are not always exact repeats. Equal values may be shown once. “Also recorded” adds a separate entry of the source.
Columns and labels:
Type in all cases: in vivo, rat
[1] = Assay B: aldosterone infusion model, heart histology, vascular inflammatory lesions and myocardial injury; conditions: aldosterone-infused, saline-drinking, uni-nephrectomized Sprague Dawley rats, 4 weeks; eplerenone 100 mpk p.o; 0.6% KCl in the drinking fluid
Experimental: Assay B: In Vivo Aldosterone Infusion Model
Male Sprague Dawley rats (n=39; BW=250 g)
→ Hearts were harvested and divided by half through a transverse section at the mid-ventricles: The upper half was stored into formalin. The bottom part was snap-frozen in liquid nitrogen for biochemical analysis.
Hearts were stained with hematoxylin&eosin and the collagen specific dye picro-sirius red and were analyzed for determination of interstitial collagen volume fraction and morphologic abnormalities (i.e. necrosis, vascular injury).

osteopontin = experiment: Assay B: serum osteopontin levels at 28 days; conditions: NaCl 1% drinking rats with aldosterone and eplerenone
[2] = Assay C: myocardial hydroxyproline colorimetric assay; conditions: 7 days of treatment; myocardium; aldosterone + salt alone or with eplerenone 100 mg/kg/day; individual rats and group Mean
Experimental: The procedure of Assay B was expanded upon in a further study. […] Myocardial tissue from animals in each treatment group was examined after 7, 14, or 30 days of treatment. […] Lesions were preceded by the expression and progressive upregulation of proinflammatory molecules. […] Prior to surgery the animals were individually weighed and placed in one of the following groups: […] Potassium chloride supplementation was added to the saline solution in order to prevent the potential hypokalemia associated with aldosterone excess. Treatment At the time of the surgery, an Alzet 2002 osmotic minipump (Alza Corp., Palo Alto, Calif.) containing either vehicle (9% ethanol/87% propylene glycol/4% dH2O) or 1.0 mg/mL d-aldosterone (Sigma Chemical, St. Louis, Mo.) was inserted subcutaneously at the nape of the neck. Aldosterone was administered at a dose of 0.75 µg/hour. […] Animals were sacrificed from each group (n=8-13) after 7, 14, or 30 days of treatment. Myocardial hydroxyproline concentration was measured by a colorimetric assay that quantifies the reaction between oxidized hydroxyproline, and p-dimethylaminobenzaldehyde as described previously (4). […] Samples were incubated at 60° C. for 30 min, cooled to room temperature, and absorbance was monitored at 558 nm. Hydroxyproline content was quantitated from a freshly prepared standard curve of trans-4-hydroxy-L-proline (Sigma, St. Louis, Mo.). […]

[3] = Survival and cerebral injury in stroke-prone spontaneously hypertensive rats
[4] = Assay B: interstitial collagen volume fraction and hydroxyproline concentration (myocardial fibrosis); conditions: aldosterone/salt-treated uni-nephrectomized Sprague Dawley rats, 4 weeks
Experimental: Assay B: In Vivo Aldosterone Infusion Model Hearts were stained with hematoxylin&eosin and the collagen specific dye picro-sirius red and were analyzed for determination of interstitial collagen volume fraction and morphologic abnormalities (i.e. necrosis, vascular injury). Hydroxyproline concentration was measured in the frozen hearts.

COX-2 = experiment: Assay B: COX-2 mRNA by quantitative RT-PCR (Taqman)
Experimental: Assay B: In Vivo Aldosterone Infusion Model Determination of osteopontin and COX-2 was performed by quantitative RT-PCR (Taqman). Osteopontin was also identified in the heart by immunohistochemistry.

SMILES | Vascular inflammatory lesions / myocardial injury (hematoxylin-eosin) [1] | Circulating (serum) osteopontin levels (osteopontin) | Hydroxyproline [2] | Survival ([3]; stroke-prone spontaneously hypertensive rats (FIG. 37)) | Cerebral injury ([3]; stroke-prone spontaneously hypertensive rats (FIGS. 37, 38)) | Myocardial fibrosis (interstitial collagen volume fraction, hydroxyproline concentration) [4] | Increase of COX-2 mRNA expression vs control (COX-2; aldosterone/salt+vehicle treatment) | COX-2 relative mRNA expression in the heart (COX-2; aldosterone/salt-treated rats, 4 weeks, vehicle or eplerenone 100 mpk p.o, control 1.2±0.12)
COC(=O)[C@@H]1CC2=CC(=O)CC[C@]2(C)[C@@]23O[C@@H]2C[C@@]2(C)[C@@H](CC[C@@]24CCC(=O)O4)[C@H]13 [eplerenone] | completely prevented the vascular inflammatory changes; also recorded: prevention by eplerenone of myocardial injury | marked decrease in circulating osteopontin levels | 4.08 µg/mg and 2.41 µg/mg | increased survival | reduced cerebral injury; also recorded: decrease in cerebral injury |  |  | 
C[C@]12CCC(=O)C=C1CC[C@@H]1[C@@H]2[C@@H](O)C[C@]2(C=O)[C@@H](C(=O)CO)CC[C@@H]12 [aldosterone] | severe vascular inflammatory lesions |  |  |  |  | absence of myocardial fibrosis | 3 fold | 3.7±0.46
